According to patent publication US11634381B2, “RUNX2 transcription factor inhibitors and uses thereof” (University of Maryland, Baltimore, priority 2015, dated 2023):
Where a SMILES comes first, the peptide text is derived from it. The star is where a group is joined. Cbz = O=C(OCc1ccccc1)*

How the values were obtained:
TAZ = test: siRNA mediated knockdown of TAZ (Western blot); format: cell-based, human; settings: MCF7 Tet.OFF cells, low or high RUNX2
Method: TAZ knockdown was performed in MCF7 Tet.OFF cells using Custom 23 mer desalted siRNA oligonucleotides from Sigma and a Universal Scrambled Negative Control siRNA Duplex from Origene (Catalog No. SR30004): TAZ siRNA #1: 5′-GACA […]-3′ (SEQ ID NO: 1), TAZ siRNA #2: 5′-[…] GAACAUU-3′ (SEQ ID NO: 2) and TAZ siRNA #3: 5′-[…]-3′ (SEQ ID NO: 3). Briefly, MCF7 Tet.OFF cells were grown in the absence or presence of doxycycline for 3 days and then transfected with corresponding siRNA's using Lipofectamine-2000 (Life Technologies). RIPA extracts were obtained 48 hr post transfection and total protein was analyzed by Western blot (see above) and probed for TAZ protein expression. Protein levels were normalized to actin and quantified using NIH Image-J software.

MCF7 RUNX2 Tet.OFF cells = test: Suspension culture tumorsphere formation; format: cell-based, human; settings: TAZ siRNA, TGFβ, 12 days
Method: MCF7 Tet.OFF cells were grown in the presence (+Dox, RUNX2 negative) or absence (−Dox, RUNX2 positive) of doxycycline for 3 days. Cells were then scraped and counted. 60,000 cells were plated in each well of a 6-well ultra-low attachment plate (Corning; 3471) in Promocell Basal Medium (Promocell; c-22211) complete with Supplement Mix (Promocell; c-39216). Cells were then treated with or without 2 ng/mL TGFβ (R&D Systems; 240-B-002). After growth for 10-15 days, wells were photographed and tumorsphere diameters were measured from photographic images (mm). Colony diameters were calculated using the formula: (L+W)/2. Representative photographs were obtained at 4× magnification. […] For TAZ siRNA knockdown experiments, TAZ siRNA was transfected (as below) into MCF7 Tet.OFF cells and 24 hr later cells were scraped and placed into suspension as described above. Small-Interfering RNA (siRNA) pool targeting RUNX1, RUNX2, and non-targeting control were purchased from Dharmacon, and transfected into cells using RNAiMAX Reagent (Invitrogen). Western blot analysis was performed 48 hrs after transfection.

RUNX2 = RUNX2 (Homo sapiens, UniProt Q13950); test: Western blot of RUNX2, RUNX1, CBF-β; format: cell-based; parameters: endogenous in cells; host or cells: MDA-231, MDA-468; settings: MDA-468 and MCF7 cells, MG132 10 μM alone, 18 hrs
Sequence of RUNX2 (Q13950 whole entry): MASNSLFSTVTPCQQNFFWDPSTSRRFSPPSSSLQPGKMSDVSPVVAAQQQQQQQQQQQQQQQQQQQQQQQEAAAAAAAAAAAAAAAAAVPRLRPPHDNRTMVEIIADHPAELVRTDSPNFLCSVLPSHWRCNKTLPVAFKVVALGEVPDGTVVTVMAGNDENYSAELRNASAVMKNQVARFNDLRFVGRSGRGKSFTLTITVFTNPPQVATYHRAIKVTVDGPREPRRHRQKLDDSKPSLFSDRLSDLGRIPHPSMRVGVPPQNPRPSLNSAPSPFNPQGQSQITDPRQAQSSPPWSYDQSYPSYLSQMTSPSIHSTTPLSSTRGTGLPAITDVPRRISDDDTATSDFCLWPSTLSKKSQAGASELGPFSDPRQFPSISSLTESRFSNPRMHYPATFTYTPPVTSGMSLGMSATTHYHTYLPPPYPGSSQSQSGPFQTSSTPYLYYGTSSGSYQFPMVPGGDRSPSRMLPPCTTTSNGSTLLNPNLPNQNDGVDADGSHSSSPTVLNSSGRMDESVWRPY
Method: Whole cell lysates extracted in RIPA buffer (Upstate) were separated on 4-12% gradient SDS-PAGE and transferred to nitrocellulose membrane. The blots were incubated with specific antibodies for each protein overnight at 4° C. After antibody washing, the blots were reacted with their respective secondary antibody and detected with enhanced chemiluminescence reagents (Millipore) according to the supplier's protocol. Antibodies for proteins were purchased as below. RUNX1, RUNX2, CBF-β, ubiquitin and caspase-3 (Cell Signaling Technologies), S451-p-RUNX2 (Bioss Gentaur, Belgium), RUNX3 and Glut-1 (Millipore, Calif.), β-actin and RUNX2 antibody for IHC (Sigma-Aldrich), and Ki-67 for IHC (Bethyl Laboratories, Inc, TX).

Lats1/2 = Lats1/2 phosphorylation (Hippo signaling); format: cell-based, human; settings: HCC1428 cells, rsE-Cad 24 hr
Method: In FIG. 22A HCC1428 luminal BC cells that express E-Cadherin were treated with recombinant soluble E-Cadherin (rsE-Cad) for 24 hr and total cell extracts were analyzed for phosphorylation of the Lats1/2 tumor suppressors. Phospho.Lats1/2 and total Lats1/2 levels declined with rsE-Cad treatment consistent with TAZ translocation to the nucleus, where it acts as an oncogene with RUNX2. […] MCF7 cells expressing RUNX2 (Tet.OFF) were treated with compound 1 drug for 24 hours and total cell extracts were analyzed for phosphp.Lats1/2, total Lats1/2, and RUNX2 expression.

5′-AAGCCUAGCUCGUGGCGGAUU-3′ (listed as RNA, chemistry not given here) [TAZ siRNA #3]
TAZ knockdown to levels of control (scrambled siRNA) (TAZ): 30% | tumorsphere size (MCF7 RUNX2 Tet.OFF cells; RUNX2 negative cells): no significant effect | tumorsphere size (MCF7 RUNX2 Tet.OFF cells; RUNX2 positive cells): 6.05±3.12 mm

5′-GACA UGAGAUCCAUCACUAUU-3′ (GACAUGAGAUCCAUCACUAUU; listed as RNA, chemistry not given here) [TAZ siRNA #1]
TAZ knockdown to levels of control (scrambled siRNA) (TAZ): 70-80% | tumorsphere size (MCF7 RUNX2 Tet.OFF cells; RUNX2 negative cells): 4.85±2.11 mm | tumorsphere size (MCF7 RUNX2 Tet.OFF cells; RUNX2 positive cells): 4.43±1.47 mm

5′-GGACAAACACCCAU GAACAUU-3′ (GGACAAACACCCAUGAACAUU; listed as RNA, chemistry not given here) [TAZ siRNA #2]
TAZ knockdown to levels of control (scrambled siRNA) (TAZ): 50-70% | tumorsphere size (MCF7 RUNX2 Tet.OFF cells; RUNX2 negative cells): 5.16±1.91 mm | tumorsphere size (MCF7 RUNX2 Tet.OFF cells; RUNX2 positive cells): 5.35±2.42 mm

CC(C)C[C@@H](C=O)NC(=O)[C@H](CC(C)C)NC(=O)[C@H](CC(C)C)NC(=O)OCc1ccccc1 [MG132, reference compound] (Cbz-Leu-Leu-Leu-aldehyde)
RUNX2 protein stability (RUNX2): increased

B1: recombinant soluble E-Cadherin: recombinant soluble E-Cadherin (rsE-Cad) (protein, UniProt P12830 155-709, looked up)
extracellular domain: DWVIPPISCPENEKGPFPKNLVQIKSNKDKEGKVFYSITGQGADTPPVGVFIIERETGWLKVTEPLDRERIATYTLFSHAVSSNGNAVEDPMEILITVTDQNDNKPEFTQEVFKGSVMEGALPGTSVMEVTATDADDDVNTYNAAIAYTILSQDPELPDKNMFTINRNTGVISVVTTGLDRESFPTYTLVVQAADLQGEGLSTTATAVITVTDTNDNPPIFNPTTYKGQVPENEANVVITTLKVTDADAPNTPAWEAVYTILNDDGGQFVVTTNPVNNDGILKTAKGLDFEAKQQYILHVAVTNVVPFEVSLTTSTATVTVDVLDVNEAPIFVPPEKRVEVSEDFGVGQEITSYTAQEPDTFMEQKITYRIWRDTANWLEINPDTGAISTRAELDREDFEHVKNSTYTALIIATDNGSPVATGTGTLLLILSDVNDNAPIPEPRTIFFCERNPKPQVINIIDADLPPNTSPFTAELTHGASANWTIQYNDPTQESIILKPKMALEVGDYKINLKLMDNQNKDQVTTLEVSVCDCEGAAGVCRKAQPVEAGLQIPA
modifications: extracellular domain
phosphorylation of the Lats1/2 tumor suppressors (Lats1/2): decline in phosphorylation
